# pIC50: −log10 of the molar value. Like-named read-outs stand apart in the source and are kept apart here.
# Experiments:
# XIAP BIR3 = molecular target: T1, XIAP BIR3 (Homo sapiens, UniProt P98170); test: XIAP-BIR3/SMAC Homogeneous Time Resolved Fluorescence (HTRF) Assay; assay type: binding
# T1 construct: His-BIR3 (241-356, XIAP)
# Summary of the method: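 Competition HTRF between XIAP-BIR3 and SMAC; reaction 60 min at room temperature, then anti-6×His-terbium Fab detection for a further 30 min.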
# XIAP BIR2-3 = molecular target: T2, XIAP BIR2-3 (Homo sapiens, UniProt P98170, C202A/C213G); test: XIAP-BIR2-3 dimeric SMAC Peptide Homogeneous Time Resolved Fluorescence (HTRF) Assay; assay type: binding
# T2 construct: His-BIR2-3 (125-356, C202A/C213G, XIAP)
# Method: B. […] Assays were performed in black, flat-bottom, 384-well plates. […] Compounds were dissolved at 3 mM in dimethylsulfoxide (DMSO) and evaluated at eleven serially diluted concentrations. IC50 and Ki values were derived by non-linear regression analysis.
# [1] = 1 nM N-His-BIR3 (241-356, XIAP), 5 nM fluorescein labeled SMAC peptide, HTRF signal, read-out: XIAP BIR3 IC50
# [2] = 0.5 nM N-His-BIR2-3 (125-356, C202A/C213G, XIAP), 20 nM fluorescein labeled dimeric SMAC peptide, HTRF signal, read-out: XIAP BIR2-3 IC50
# T1 sequence (P98170 241-356): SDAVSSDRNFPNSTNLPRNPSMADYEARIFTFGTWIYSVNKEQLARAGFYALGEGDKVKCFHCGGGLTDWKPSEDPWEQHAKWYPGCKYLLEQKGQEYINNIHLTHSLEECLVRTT
# T2 sequence (P98170 125-356 C202A/C213G): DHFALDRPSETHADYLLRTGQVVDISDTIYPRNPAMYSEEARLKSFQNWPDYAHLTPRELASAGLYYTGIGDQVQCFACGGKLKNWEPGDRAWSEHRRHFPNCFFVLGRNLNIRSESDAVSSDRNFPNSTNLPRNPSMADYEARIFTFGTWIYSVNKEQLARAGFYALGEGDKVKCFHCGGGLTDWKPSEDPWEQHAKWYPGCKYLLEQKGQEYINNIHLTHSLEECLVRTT
SMILES,pIC50 (XIAP BIR3; [1]),pIC50 (XIAP BIR2-3; [2]),pIC50 (XIAP BIR3),pIC50 (XIAP BIR2-3)
"CN[C@@H](C)C(=O)N[C@H](C(=O)N1C[C@@H](c2ccc3c(c2)CN(C(=O)[C@@H](NC(=O)[C@H](C)NC)C(C)(C)C)[C@H](C(=O)N[C@@H]2CCCc4ccccc42)C3)C[C@H]1C(=O)N[C@@H](Cc1ccccc1)C(=O)Nc1cccc(C#N)c1)C(C)(C)C [Example 59, (S)-7-((3R,5S)-5-(((S)-1-((3-Cyanophenyl)amino)-1-oxo-3-phenylpropan-2-yl)carbamoyl)-1-((S)-3,3-dimethyl-2-((S)-2-(methylamino)propanamido)butanoyl)pyrrolidin-3-yl)-2-((S)-3,3-dimethyl-2-((S)-2-(methylamino)propanamido)butanoyl)-N-((R)-1,2,3,4-tetrahydronaphthalen-1-yl)-1,2,3,4-tetrahydroisoquinoline-3-carboxamide]",8.17,8.66,–,–
"CN[C@@H](C)C(=O)N[C@H](C(=O)N1C[C@@H](c2ccc3c(c2)CN(C(=O)[C@@H](NC(=O)[C@H](C)NC)C(C)(C)C)[C@H](C(=O)N[C@@H]2CCCc4ccccc42)C3)C[C@H]1C(=O)N[C@@H](Cc1ccccc1)C(=O)NCCOC)C(C)(C)C [Example 61, (S)-2-((S)-3,3-Dimethyl-2-((S)-2-(methylamino)propanamido)butanoyl)-7-((3R,5S)-1-((S)-3,3-dimethyl-2-((S)-2-(methylamino)propanamido)butanoyl)-5-(((S)-1-((2-methoxyethyl)amino)-1-oxo-3-phenylpropan-2-yl)carbamoyl)pyrrolidin-3-yl)-N-((R)-1,2,3,4-tetrahydronaphthalen-1-yl)-1,2,3,4-tetrahydroisoquinoline-3-carboxamide]",7.66,8.47,–,–
"CCN(CC)C(=O)[C@H](Cc1ccccc1)NC(=O)[C@@H]1C[C@H](c2ccc3c(c2)CN(C(=O)[C@@H](NC(=O)[C@H](C)NC)C(C)(C)C)[C@H](C(=O)N[C@@H]2CCCc4ccccc42)C3)CN1C(=O)[C@@H](NC(=O)[C@H](C)NC)C(C)(C)C [Example 62, (S)-7-((3R,5S)-5-(((S)-1-(Diethylamino)-1-oxo-3-phenylpropan-2-yl)carbamoyl)-1-((S)-3,3-dimethyl-2-((S)-2-(methylamino)propanamido)butanoyl)pyrrolidin-3-yl)-2-((S)-3,3-dimethyl-2-((S)-2-(methylamino)propanamido)butanoyl)-N-((R)-1,2,3,4-tetrahydronaphthalen-1-yl)-1,2,3,4-tetrahydroisoquinoline-3-carboxamide]",–,–,8.04,8.72

# Continued, in another order:
pIC50 (XIAP BIR3; [1]),pIC50 (XIAP BIR2-3; [2]),SMILES,pIC50 (XIAP BIR3),pIC50 (XIAP BIR2-3)
7.78,8.52,"CN[C@@H](C)C(=O)N[C@H](C(=O)N1C[C@@H](c2ccc3c(c2)CN(C(=O)[C@@H](NC(=O)[C@H](C)NC)C(C)(C)C)[C@H](C(=O)N[C@@H]2CCCc4ccccc42)C3)C[C@H]1C(=O)N[C@@H](Cc1ccccc1)C(=O)N(C1CC1)C1CC1)C(C)(C)C [Example 63, (S)-7-((3R,5S)-5-(((S)-1-(Dicyclopropylamino)-1-oxo-3-phenylpropan-2-yl)carbamoyl)-1-((S)-3,3-dimethyl-2-((S)-2-(methylamino)propanamido)butanoyl)pyrrolidin-3-yl)-2-((S)-3,3-dimethyl-2-((S)-2-(methylamino)propanamido)butanoyl)-N-((R)-1,2,3,4-tetrahydronaphthalen-1-yl)-1,2,3,4-tetrahydroisoquinoline-3-carboxamide]",–,–
7.59,8.42,"CN[C@@H](C)C(=O)N[C@H](C(=O)N1C[C@@H](c2ccc3c(c2)CN(C(=O)[C@@H](NC(=O)[C@H](C)NC)C(C)(C)C)[C@H](C(=O)N[C@@H]2CCCc4ccccc42)C3)C[C@H]1C(=O)N[C@@H](Cc1ccccc1)C(=O)NC1CC1)C(C)(C)C [Example 64, (S)-7-((3R,5S)-5-(((S)-1-(Cyclopropylamino)-1-oxo-3-phenylpropan-2-yl)carbamoyl)-1-((S)-3,3-dimethyl-2-((S)-2-(methylamino)propanamido)butanoyl)pyrrolidin-3-yl)-2-((S)-3,3-dimethyl-2-((S)-2-(methylamino)propanamido)butanoyl)-N-((R)-1,2,3,4-tetrahydronaphthalen-1-yl)-1,2,3,4-tetrahydroisoquinoline-3-carboxamide]",–,–
